We go through 8 compounds from ChEMBL document CHEMBL1151522, “Syntheses of homoserine phosphate analogs as potential inhibitors of bacterial threonine synthase” (Bioorg Med Chem Lett, 1994).

Each structure is given as a SMILES string. pKi: −log10 of the molar value.

The nature of assay [1]: Inhibition of threonine synthase in Escherichia coli; c: indicates No inhibition at 10 mM.
Assay [2] is described as follows: Inhibition of threonine synthase in Escherichia coli.
Assay [3] deals with Escherichia coli. Briefly: Inhibition of Escherichia coli threonine synthase expressed as inactivation constant; d: indicates competitive inhibitor.
Assay [4] has as its system Escherichia coli. Description: Inhibition of Escherichia coli threonine synthase expressed as inactivation constant.

As usually defined, the pKi is the Ki on a negative log10 scale, so that one unit is a factor of ten.

In the case of `NC(C/C=C\P(=O)(O)O)C(=O)O` (stereo not drawn), the Ki result in assay [1] is “No inhibition”.

On to `NC(CC#CP(=O)(O)O)C(=O)O` (stereo not drawn), for which the Ki entry in assay [1] is recorded as “No inhibition”. In turn, `NC(CSCP(=O)(O)O)C(=O)O` (stereo not drawn) gave a pKi in assay [2] of 4.48. Also, the K inact entry with Escherichia coli [3] was “d”. `NC(/C=C/CP(=O)(O)O)C(=O)O` (stereo not drawn): in the assay with Escherichia coli [4], the K inact was 0.25 min⁻¹. The same compound showed a pKi in assay [2] of 3.40. On to `NC(C/C=C/P(=O)(O)O)C(=O)O` (stereo not drawn), for which the pKi in assay [2] is 3.27. The K inact result in the assay with Escherichia coli [3] was “Competitive inhibitor”. As for `NC(CNCP(=O)(O)O)C(=O)O` (stereo not drawn), in the assay on Escherichia coli [4], the K inact amounted to 1.44 min⁻¹. In assay [2], this compound gave a pKi of 4.23. On the same counts, the results for `NC(/C=C\CP(=O)(O)O)C(=O)O` (stereo not drawn) are 1.5 min⁻¹ and 1.00. Regarding `NC(COCP(=O)(O)O)C(=O)O` (stereo not drawn), the Ki entry in assay [1] is listed as “No inhibition”.
